Assay results reported in patent US20030118627A1 (DABUR RESEARCH FOUNDATION, priority 2001, published 2003).

What was measured:
MOLT 4 = assay: MTT cytotoxicity assay, MOLT 4 leukemia; format: cell-based; settings: Homo sapiens
Protocol: (§1) Briefly, a […] MTT cytotoxicity assay was performed, which is based on the principle of uptake of MTT (3-(4,5-dimethylthiazol-2-yl)-2,5-diphenyl tetrazolium bromide), a tetrazolium salt, by the metabolically active cells where it is metabolized by active mitochondria into a blue colored formazan product that is read spectrophoto-metrically. MTT was dissolved in phosphate buffered saline with a pH of 7.4 to obtain an MTT concentration of 5 mg/ml; the resulting mixture was filtered through a 0.22 micron filter to sterilize and remove a small amount of insoluble residue. For each type of tumor cell, 20,000 to 50,000 cells were seeded in a 96-well culture plate and incubated with the combination in a CO2 incubator for 24 hours. […] The assay was terminated after 24 hours by adding 100 ug (20 ul) of MTT to each well, then incubating for additional one hour, and finally adding 50 ul of 10% SDS-0.01N HCl to each well to lyse the cells and dissolve formazan. After incubating for one hour, the plate was read spectrophotometrically at 540 nm and the percentage cytotoxicity calculated.

PA 1 = assay: MTT cytotoxicity assay, PA 1 ovary; format: cell-based; settings: Homo sapiens
Protocol: as §1

PTC = assay: MTT cytotoxicity assay, PTC colon; format: cell-based; settings: Homo sapiens
Protocol: as §1

Miapaca2 = assay: MTT cytotoxicity assay, Miapaca2 pancreas; format: cell-based; settings: Homo sapiens
Protocol: as §1

DU145 = assay: MTT cytotoxicity assay, DU145 prostate; format: cell-based; settings: Homo sapiens
Protocol: as §1

L132 = assay: MTT cytotoxicity assay, L132 lung; format: cell-based; settings: Homo sapiens
Protocol: as §1

MCF7 = assay: MTT cytotoxicity assay, MCF7 breast; format: cell-based; settings: Homo sapiens
Protocol: as §1

U87MG = assay: MTT cytotoxicity assay, U87MG glioblastoma; format: cell-based; settings: Homo sapiens, U-87 MG, 24 h, read-out: ED50 values of cytotoxicity
Protocol: as §1

KB = assay: MTT cytotoxicity assay, KB oral; format: cell-based; settings: Homo sapiens, 24 h, read-out: ED50 values of cytotoxicity
Protocol: as §1

Hep2 = assay: MTT cytotoxicity assay, Hep2 larynx; format: cell-based; settings: Homo sapiens, HEp-2, 24 h, read-out: ED50 values of cytotoxicity
Protocol: as §1

293 = assay: MTT cytotoxicity assay, 293 kidney; format: cell-based; settings: Homo sapiens, HEK293, 24 h, read-out: ED50 values of cytotoxicity
Protocol: as §1

INT 407 = assay: MTT cytotoxicity assay, INT 407 intestine; format: cell-based; settings: Homo sapiens, 24 h, read-out: ED50 values of cytotoxicity
Protocol: as §1

Swiss albino mice = settings: both, mouse, in vivo, po, 15 days
Protocol: Acute toxicity studies were performed using the oral route of administration.
A batch of 5 female and 5 male mice each was administered the test substance by oral route. […] Another batch of 5 female and 5 male served as control.
Observations were made three times on the day of dosing and twice daily thereafter for the remainder of 14 days or until reversible toxic signs or symptoms subsided. All gross visible toxic signs and symptoms were recorded. Body weights were recorded prior to dosing and weekly thereafter.

[1] = 1.0 mM, read-out: Percent cytotoxicity
[2] = 2.5 mM, read-out: Percent cytotoxicity
[3] = 4 mM, read-out: Percent cytotoxicity
[4] = 5 mM, read-out: Percent cytotoxicity
[5] = 10 mM, read-out: Percent cytotoxicity
[6] = 24 h, read-out: ED50 values of cytotoxicity

SMILES: CCCCOC(=O)C1CCC(=O)N1C(O)C(C)=O (centres unmarked) [MGC-2, N-(1-hydroxy-2-ketopropyl)-butylpyroglutamate]
- IC50 (MOLT 4; 24 h, Molt 4 Leukemia, read-out: ED50 values of cytotoxicity): < 1 mM
- cytotoxicity at 1000 µM (MOLT 4; MOLT 4 Leukemia, 1.0 mM, read-out: Percent cytotoxicity): 75.9%
- cytotoxicity at 2500 µM (MOLT 4; MOLT 4 Leukemia, 2.5 mM, read-out: Percent cytotoxicity): 85.9 ± 6.3%
- cytotoxicity at 4000 µM (MOLT 4; MOLT 4 Leukemia, 4 mM, read-out: Percent cytotoxicity): 87.8 ± 5%
- cytotoxicity at 5000 µM (MOLT 4; MOLT 4 Leukemia, 5 mM, read-out: Percent cytotoxicity): 88.2 ± 5.9%
- cytotoxicity at 10000 µM (MOLT 4; MOLT 4 Leukemia, 10 mM, read-out: Percent cytotoxicity): 90.2 ± 7.2%
- IC50 (PA 1; 24 h, PA 1 Ovarian, read-out: ED50 values of cytotoxicity): 1.2 ± 0.2 mM
- cytotoxicity at 2500 µM (PA 1; PA 1 Ovary, 2.5 mM, read-out: Percent cytotoxicity): 57.9 ± 4.5%
- cytotoxicity at 4000 µM (PA 1; PA 1 Ovary, 4 mM, read-out: Percent cytotoxicity): 67.9 ± 5.4%
- cytotoxicity at 5000 µM (PA 1; PA 1 Ovary, 5 mM, read-out: Percent cytotoxicity): 84.9 ± 4.8%
- cytotoxicity at 10000 µM (PA 1; PA 1 Ovary, 10 mM, read-out: Percent cytotoxicity): 87.9 ± 6.3%
- cytotoxicity at 1000 µM (PTC; [1]): 45.8%
- cytotoxicity at 2500 µM (PTC; [2]): 68.9 ± 5.3%
- cytotoxicity at 4000 µM (PTC; [3]): 85.9 ± 6.2%
- cytotoxicity at 5000 µM (PTC; [4]): 88.8 ± 5.3%
- cytotoxicity at 10000 µM (PTC; [5]): 86.9 ± 5%
- IC50 (PTC; [6]): 1.6 ± 0.1 mM
- cytotoxicity at 1000 µM (Miapaca2; MIA PaCa-2, 1.0 mM, read-out: Percent cytotoxicity): 34.8%
- cytotoxicity at 2500 µM (Miapaca2; MIA PaCa-2, 2.5 mM, read-out: Percent cytotoxicity): 64.9 ± 5.9%
- cytotoxicity at 4000 µM (Miapaca2; MIA PaCa-2, 4 mM, read-out: Percent cytotoxicity): 74.9 ± 3.8%
- cytotoxicity at 5000 µM (Miapaca2; MIA PaCa-2, 5 mM, read-out: Percent cytotoxicity): 76.9 ± 4%
- cytotoxicity at 10000 µM (Miapaca2; MIA PaCa-2, 10 mM, read-out: Percent cytotoxicity): 84.9 ± 6.3%
- IC50 (Miapaca2; MIA PaCa-2, 24 h, read-out: ED50 values of cytotoxicity): 1.7 ± 0.6 mM
- cytotoxicity at 1000 µM (DU145; DU-145, 1.0 mM, read-out: Percent cytotoxicity): 43.9%
- cytotoxicity at 2500 µM (DU145; DU-145, 2.5 mM, read-out: Percent cytotoxicity): 53.9 ± 3.8%
- cytotoxicity at 4000 µM (DU145; DU-145, 4 mM, read-out: Percent cytotoxicity): 58.9 ± 4.3%
- cytotoxicity at 5000 µM (DU145; DU-145, 5 mM, read-out: Percent cytotoxicity): 67.9 ± 5.2%
- cytotoxicity at 10000 µM (DU145; DU-145, 10 mM, read-out: Percent cytotoxicity): 86.9 ± 6.9%
- IC50 (DU145; DU-145, 24 h, read-out: ED50 values of cytotoxicity): 1.6 ± 0.1 mM
- cytotoxicity at 1000 µM (L132; [1]): 34.8%
- cytotoxicity at 2500 µM (L132; [2]): 58.5 ± 3.6%
- cytotoxicity at 4000 µM (L132; [3]): 62.9 ± 2.9%
- cytotoxicity at 5000 µM (L132; [4]): 87.8 ± 5.8%
- cytotoxicity at 10000 µM (L132; [5]): 88.6 ± 3%
- IC50 (L132; [6]): 1.9 ± 0.8 mM
- IC50 (MCF7; MCF7, 24 h, MCF 7 Breast, read-out: ED50 values of cytotoxicity): 2.5 ± 0.4 mM
- cytotoxicity at 1000 µM (MCF7; MCF7 breast, 1.0 mM, read-out: Percent cytotoxicity): 34.7%
- cytotoxicity at 2500 µM (MCF7; MCF7 breast, 2.5 mM, read-out: Percent cytotoxicity): 50.6 ± 4.1%
- cytotoxicity at 4000 µM (MCF7; MCF7 breast, 4 mM, read-out: Percent cytotoxicity): 57.9 ± 4.8%
- cytotoxicity at 5000 µM (MCF7; MCF7 breast, 5 mM, read-out: Percent cytotoxicity): 67.9 ± 4%
- cytotoxicity at 10000 µM (MCF7; MCF7 breast, 10 mM, read-out: Percent cytotoxicity): 78.9 ± 5.2%
- IC50 (U87MG): 3.15 ± 1.1 mM
- IC50 (KB): 2.6 ± 0.5 mM
- IC50 (Hep2): 2 ± 0.3 mM
- IC50 293: 2 ± 0.8 mM
- IC50 (INT 407): 2.7 ± 0.8 mM
- safe dose (Swiss albino mice): 75 mg
